Key:
[1] = biological target: T1, human full length PIK3KA Wild-type (p110α/p85α complex) (Homo sapiens, UniProt P42336); experiment: PI3K-alpha kinase (PIK3CA) biochemical activity, wild-type, ADP-Glo; settings: PI3K-α (PIK3CA) biochemical, Soy PI lipid substrate
T1 construct: Recombinant, catalytically active human full length PIK3KA Wild-type and H1047R mutant were purchased as 1:1 complex; 6xHis (N); purchased EMD Millipore Sigma 14-602M
Summary of the method: (§1)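 ADP formation, read by ADP-Glo, is run to about 10% ATP turnover at 27 °C with 20 μM ATP and 50 μM PIP2diC8 or soy PI. WT or H1047R p110α/p85α (1–5 nM) is pre-incubated 1 h with compound in HEPES pH 7.4/MgCl2/Triton buffer, 1% DMSO. 10-point 1:3 series, logistic IC50 versus no-enzyme and DMSO controls.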

[2] = biological target: T2, human full length PIK3KA H1047R mutant (p110α/p85α complex) (Homo sapiens, UniProt P42336, H1047R); experiment: PI3K-alpha kinase (PIK3CA) biochemical activity, H1047R mutant, ADP-Glo; settings: PI3K-α (PIK3CA) biochemical, H1047R mutant, Soy PI lipid substrate
T2 construct: Recombinant, catalytically active human full length PIK3KA Wild-type and H1047R mutant were purchased as 1:1 complex; 6xHis (N); purchased EMD Millipore Sigma 14-792M
Summary of the method: as §1

[3] = system: PI3K-α (PIK3CA) in MDA-MB-453 cells; experiment: PI3K-alpha kinase (PIK3CA) activity in vitro cell based assay, MDA-MB-453 cells, AlphaLisa SureFire; settings: Homo sapiens, MDA-MB-453, 3 h, 0% FBS, 3 hours treatment, relative IC50
Summary of the method: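 MDA-MB-453 cells in serum-free MEM with 1 μg/mL insulin treated 3 h with 10-point 1:3 compound dilutions, 0.3% DMSO. Lysates read by AlphaLisa SureFire; percent inhibition relative to DMSO (max) and 1 μM GDC-0032 (min), duplicate means fitted to 4-parameter logistic for relative IC50.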

T2 sequence (P42336 whole entry H1047R): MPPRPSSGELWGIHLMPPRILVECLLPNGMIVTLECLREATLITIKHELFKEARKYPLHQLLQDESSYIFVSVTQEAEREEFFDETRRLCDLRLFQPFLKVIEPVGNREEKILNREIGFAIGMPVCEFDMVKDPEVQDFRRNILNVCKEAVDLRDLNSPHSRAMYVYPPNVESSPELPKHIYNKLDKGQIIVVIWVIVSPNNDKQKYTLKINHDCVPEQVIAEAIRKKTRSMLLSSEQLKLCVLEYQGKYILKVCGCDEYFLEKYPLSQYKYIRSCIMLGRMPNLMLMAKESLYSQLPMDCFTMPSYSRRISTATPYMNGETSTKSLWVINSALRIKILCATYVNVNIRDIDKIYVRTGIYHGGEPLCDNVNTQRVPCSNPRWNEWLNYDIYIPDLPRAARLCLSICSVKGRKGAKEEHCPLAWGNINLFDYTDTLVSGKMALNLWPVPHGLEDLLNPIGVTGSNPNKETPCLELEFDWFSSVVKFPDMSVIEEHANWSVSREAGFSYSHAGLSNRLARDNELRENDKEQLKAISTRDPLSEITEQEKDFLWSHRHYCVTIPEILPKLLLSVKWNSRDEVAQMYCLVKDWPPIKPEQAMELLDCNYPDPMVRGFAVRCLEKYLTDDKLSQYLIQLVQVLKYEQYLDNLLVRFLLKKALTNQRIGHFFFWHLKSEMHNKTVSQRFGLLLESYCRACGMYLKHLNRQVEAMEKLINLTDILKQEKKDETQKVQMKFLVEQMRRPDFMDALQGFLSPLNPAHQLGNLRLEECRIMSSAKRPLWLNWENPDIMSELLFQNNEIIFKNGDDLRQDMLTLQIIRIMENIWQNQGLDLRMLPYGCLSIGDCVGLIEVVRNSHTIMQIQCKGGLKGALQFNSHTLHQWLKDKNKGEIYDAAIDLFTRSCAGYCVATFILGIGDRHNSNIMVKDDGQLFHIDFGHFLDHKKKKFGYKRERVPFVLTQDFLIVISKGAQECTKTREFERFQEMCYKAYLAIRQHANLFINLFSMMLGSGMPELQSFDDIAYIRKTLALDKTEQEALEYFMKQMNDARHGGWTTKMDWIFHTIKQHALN
T2 sequence (P27986 whole entry partner): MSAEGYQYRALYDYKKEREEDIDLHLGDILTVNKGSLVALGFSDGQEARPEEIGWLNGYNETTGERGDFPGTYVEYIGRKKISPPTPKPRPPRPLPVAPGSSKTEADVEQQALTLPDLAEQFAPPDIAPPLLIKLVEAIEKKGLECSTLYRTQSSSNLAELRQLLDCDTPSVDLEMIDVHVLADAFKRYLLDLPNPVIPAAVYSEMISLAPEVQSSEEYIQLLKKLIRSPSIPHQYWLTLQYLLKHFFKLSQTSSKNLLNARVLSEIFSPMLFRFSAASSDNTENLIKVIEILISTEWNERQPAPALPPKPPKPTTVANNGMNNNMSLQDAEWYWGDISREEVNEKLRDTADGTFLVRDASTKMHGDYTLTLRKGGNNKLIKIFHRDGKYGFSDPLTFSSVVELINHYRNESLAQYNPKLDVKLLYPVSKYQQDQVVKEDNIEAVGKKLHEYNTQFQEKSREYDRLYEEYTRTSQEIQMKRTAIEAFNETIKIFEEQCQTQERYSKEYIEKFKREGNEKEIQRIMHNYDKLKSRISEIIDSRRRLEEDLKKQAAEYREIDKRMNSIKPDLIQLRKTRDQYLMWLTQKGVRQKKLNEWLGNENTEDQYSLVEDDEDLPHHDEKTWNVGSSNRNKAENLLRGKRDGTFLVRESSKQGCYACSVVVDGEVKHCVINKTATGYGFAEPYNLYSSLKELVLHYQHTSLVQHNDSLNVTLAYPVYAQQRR

| Structure (SMILES) | IC50 [1] [nM] | IC50 [2] [nM] | IC50 [3] [nM] |
| --- | --- | --- | --- |
| Cc1cc([C@@H](C)Nc2ccccc2C(=O)O)c2oc(-c3ccccc3)c(-c3cccnc3)c(=O)c2c1 [Example 156, 2-[[(1R)-1-[6-Methyl-4-oxo-2-phenyl-3-(3-pyridyl)chromen-8-yl]ethyl]amino]benzoic acid 2,2,2-trifluoroacetic acid] | 1000 to 5000 | 500 to 1000 | 100 to 500 |
| Cc1cc([C@@H](C)Nc2ccccc2C(=O)O)c2oc(-c3ccc(-c4c[nH]nc4C)cc3)c(C)c(=O)c2c1 [Example 161, 2-[[(1R)-1-[3,6-Dimethyl-2-[4-(3-methyl-1H-pyrazol-4-yl)phenyl]-4-oxo-chromen-8-yl]ethyl]amino]benzoic acid] | 500 to 1000 | < 500 | < 50 |
| Cc1cc([C@@H](C)Nc2ccccc2C(=O)O)c2oc(-c3ccc(-c4cn[nH]c4)cc3)c(C)c(=O)c2c1 [Example 162, 2-[[(1R)-1-[3,6-Dimethyl-4-oxo-2-[4-(1H-pyrazol-4-yl)phenyl]chromen-8-yl]ethyl]amino]benzoic acid] | 500 to 1000 | < 500 | < 50 |
| Cc1cc([C@@H](C)Nc2ccccc2C(=O)O)c2oc(-c3ccc(-c4cn[nH]c4)cc3)cc(=O)c2c1 [Example 163, 2-[[(1R)-1-[6-Methyl-4-oxo-2-[4-(1H-pyrazol-4-yl)phenyl]chromen-8-yl]ethyl]amino]benzoic acid] | 1000 to 5000 | 500 to 1000 | 50 to 100 |
| Cc1cc([C@@H](C)Nc2ccccc2C(=O)O)c2oc(-c3ccc(-c4cnn(C)c4)cc3)c(C)c(=O)c2c1 [Example 164, 2-[[(1R)-1-[3,6-Dimethyl-2-[4-(1-methylpyrazol-4-yl)phenyl]-4-oxo-chromen-8-yl]ethyl]amino]benzoic acid] | < 500 | < 500 | < 50 |
| Cc1cc([C@@H](C)Nc2ccccc2C(=O)O)c2oc(-c3ccc(-c4c(C)n[nH]c4C)cc3)c(C)c(=O)c2c1 [Example 165, 2-[[(1R)-1-[2-[4-(3,5-Dimethyl-1H-pyrazol-4-yl)phenyl]-3,6-dimethyl-4-oxo-chromen-8-yl]ethyl]amino]benzoic acid] | 1000 to 5000 | < 500 | < 50 |
| Cc1cc([C@@H](C)Nc2ccccc2C(=O)O)c2oc(-c3cccc(-c4cc[nH]n4)c3)c(C)c(=O)c2c1 [Example 166, 2-[[(1R)-1-[3,6-Dimethyl-4-oxo-2-[3-(1H-pyrazol-3-yl)phenyl]chromen-8-yl]ethyl]amino]benzoic acid] | 1000 to 5000 | 500 to 1000 | < 50 |
| Cc1cc([C@@H](C)Nc2ccccc2C(=O)O)c2oc(-c3cccc(-c4cn[nH]c4)c3)c(C)c(=O)c2c1 [Example 167, 2-[[(1R)-1-[3,6-Dimethyl-4-oxo-2-[3-(1H-pyrazol-4-yl)phenyl]chromen-8-yl]ethyl]amino]benzoic acid] | 500 to 1000 | < 500 | < 50 |
| Cc1cc([C@@H](C)Nc2ccccc2C(=O)O)c2oc(-c3ccc(-c4ccn[nH]4)cc3)c(C)c(=O)c2c1 [Example 168, 2-[[(1R)-1-[3,6-Dimethyl-4-oxo-2-[4-(1H-pyrazol-5-yl)phenyl]chromen-8-yl]ethyl]amino]benzoic acid] | 500 to 1000 | < 500 | < 50 |
| Cc1cc([C@@H](C)Nc2ccccc2C(=O)O)c2oc(-c3ccccc3)c(NCCC(=O)O)c(=O)c2c1 [Example 171, 2-[[(1R)-1-[3-(2-Carboxyethylamino)-6-methyl-4-oxo-2-phenyl-chromen-8-yl]ethyl]amino]benzoic acid 2,2,2-trifluoroacetic acid] | > 10000 | 500 to 1000 | > 500 |

From patent US11873295B2, “Allosteric chromenone inhibitors of phosphoinositide 3-kinase (PI3K) for the treatment of disease” (Petra Pharma Corporation, priority 2021, dated 2024)
